In the supplement of paper PMC10307832:

Assays:
Assay in all cases: relative viability (nuclei count vs DMSO), 5 days (fraction); higher = more cells survive
[1] = compound: CCC1=CN=CN=C1N2CCN(CC2)CC3=NC4=C(N3)C=C(C=C4)C(F)(F)F + CCNC(=O)c1noc(-c2cc(C(C)C)c(O)cc2O)c1-c1ccc(CN2CCOCC2)cc1 [Luminespib] (partner 0.01 µM)
Procedure, shortened: (§1)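 Relative viability divides the nuclei count in treated wells by that in vehicle wells. Lung cancer cell lines were seeded in 1536-well plates, dosed by pin tool the next day, and fixed and stained after 5 days in one step with final 0.05% Triton X-100, 1% formaldehyde and 1 ug/ml Hoechst. Dosing was a single drug or a fixed anchor-drug dose plus five library-drug doses (not always all listed) in √10 steps, and values are medians of duplicate plates imaged at 4×.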

[2] = compound: CCn1c(-c2nonc2N)nc2cnc(Oc3cccc(NC(=O)c4ccc(OCCN5CCOCC5)cc4)c3)cc21 + COc1cc2c(Oc3ccc(NC(=O)C4(C(=O)Nc5ccc(F)cc5)CC4)cc3F)ccnc2cc1OCCCN1CCOCC1 [Foretinib] (partner 0.25 µM)
Procedure, shortened: as §1

[3] = compound: CCn1c(-c2nonc2N)nc2cnc(Oc3cccc(NC(=O)c4ccc(OCCN5CCOCC5)cc4)c3)cc21 + Nc1nc2[nH]cc(CCc3ccc(C(=O)N[C@@H](CCC(=O)O)C(=O)O)cc3)c2c(=O)[nH]1 [Pemetrexed] (partner 0.2 µM)
Procedure, shortened: as §1

[4] = compound: N=C1NC(=O)/C(=C/c2ccc(O)cc2)S1 [Mirin] + Nc1nc2[nH]cc(CCc3ccc(C(=O)N[C@@H](CCC(=O)O)C(=O)O)cc3)c2c(=O)[nH]1 [Pemetrexed] (partner 0.2 µM)
Procedure, shortened: as §1

Question: Which results are given for UMC-11?
Answer: relative viability ([1]; first compound 0.04 µM): 0.974; relative viability ([1]; first compound 0.1265 µM): 1.05; relative viability ([1]; first compound 0.4 µM): 0.917; relative viability ([1]; first compound 1.265 µM): 0.902; relative viability ([1]; first compound 4 µM): 0.746; relative viability ([2]; first compound 0.04 µM): 1.04; relative viability ([2]; first compound 0.1265 µM): 0.903; relative viability ([2]; first compound 0.4 µM): 0.68; relative viability ([2]; first compound 1.265 µM): 0.245; relative viability ([2]; first compound 4 µM): 0.186; relative viability ([3]; first compound 0.04 µM): 0.813; relative viability ([3]; first compound 0.1265 µM): 0.596; relative viability ([3]; first compound 0.4 µM): 0.613; relative viability ([3]; first compound 1.265 µM): 0.283; relative viability ([3]; first compound 4 µM): 0.231; relative viability ([4]; first compound 0.25 µM): 0.787; relative viability ([4]; first compound 0.7906 µM): 0.74; relative viability ([4]; first compound 2.5 µM): 0.92; relative viability ([4]; first compound 7.906 µM): 0.691; relative viability ([4]; first compound 25 µM): 0.568
